Laboratory results taken from publication PMC7221793, “Metabolism and Pharmacokinetics of SP-8356, a Novel (1S)-(−)-Verbenone Derivative, in Rats and Dogs and Its Implications in Humans” (Molecules, 2020).

Key:
[1] = In vivo metabolite identification, pooled rat plasma (Q-TOF LC-MS/MS); conditions: i.v. SP-8356 20 mg/kg; for AUClast (%): % versus total AUClast of parent and all detected metabolites; for AUClast (AR∙h) × 10^2: AR = peak area ratio versus internal standard; for Tmax: male, SD, iv, time of highest AR
Procedure: (§1) Plasma samples from the i.v. administrations described in Section 4.2 and Section 4.3 were used in this study. Plasma samples pooled at each time point were subjected to sample preparation as described in Section 4.2. The prepared samples were analyzed by Agilent 6530 Q-TOF LC-MS/MS system equipped with dual AJS ESI ion source and Agilent 1200 series HPLC system as described below.
(§2) Chromatographic separation was achieved on an Agilent Eclipse C18 column (2.1 mm × 100 mm, 3.5 µm) by a gradient elution with a mobile phase consisting of 0.1 vol.% formic acid in water (A) and 0.1 vol.% formic acid in acetonitrile (B) at 50 °C: starting with 5 vol.% B for 2 min, ramping to 95 vol.% B over 1 min, maintaining for 3 min. The mobile phase flow rate was kept at 0.45 mL/min throughout the run. The sample injection volume was 5 µL. Ion source parameters were set as follows: capillary voltage, 3500 V; drying gas, 12 L/min and 300 °C; nebulizer gas, 30 psi; sheath gas, 12 L/min and 300 °C. Mass spectra were acquired in negative ion auto MS/MS mode (F, 135 V; CE, 25 eV) with full scan range of m/z (100–1000) and mass scan rate of 8 spectra/s. Metabolites were identified using Agilent MassHunter Metabolite ID software (version B.04.00) (Santa Clara, CA, USA). Chromatograms and mass spectra of the parent and identified metabolites were extracted using Agilent MassHunter Qualitative Analysis software (version B.05.00) (Santa Clara, CA, USA).

[2] = In vivo metabolite identification, pooled dog plasma (Q-TOF LC-MS/MS); conditions: i.v. SP-8356 50 mg/kg; for AUClast (%): % versus total AUClast of parent and all detected metabolites; for AUClast (AR∙h) × 10^2: AR = peak area ratio versus internal standard; for Tmax: male, Beagle, iv, time of highest AR
Procedure: as §1, §2

[3] = In vivo metabolite identification, pooled rat urine; conditions: rat pooled urine 0–24 h, single i.v. dose of SP-8356
Procedure: Rat urine samples were collected from the animal studies approved by the IACUC of Korea University (Approval No.: KUIACUC-2017-124; Approval date: Jul. 29, 2017). SP-8356 dissolved in DMA/Cremophor EL/saline (5/10/85 vol.%) was dosed i.v. at 10 mg/kg (n = 5/dose group) to male SD rats (8 weeks old; (255–275) g; Koatech Inc., Gyeonggi, Republic of Korea) housed individually in metabolic cages. Urine samples were collected for ((0–4), (4–8) and (8–24)) h. Pooled urine samples were mixed with equal volume of acetonitrile containing HSDH (1 μg/mL) as IS, followed by filtration with a syringeless filter device (Mini-UniPrep™, PTFE filter media with polypropylene housing, 0.45 µm). The filtrate was analyzed by Agilent 6530 Q-TOF LC-MS/MS system equipped with dual AJS ESI ion source and Agilent 1200 series HPLC system, as follows.
Chromatographic separation was achieved on an Agilent Eclipse C18 column (2.1 mm × 100 mm, 3.5 µm) by a gradient elution with a mobile phase consisting of 0.1 vol.% formic acid in water (A) and 0.1 vol.% formic acid in acetonitrile (B) at 50 °C: starting with 5 vol.% B for 2 min, ramping to 95 vol.% B over 1 min, maintaining for 3 min. The mobile phase flow rate was kept at 0.45 mL/min throughout the run. The sample injection volume was 5 µL. […]

Row | AUClast (%) [1] [%] | AUClast (AR∙h) × 10^2 [1] | Tmax [1] [min] | AUClast (%) [2] [%] | AUClast (AR∙h) × 10^2 [2] | Tmax [2] [min] | metabolites detected in urine [3] | Structure (SMILES)
1 | 0.40 | 0.55 (AR∙h) × 10^2 | 1.02 | 0.07 | 2.7 (AR∙h) × 10^2 | 4.98 |  | CC1(C)[C@@H]2C[C@H]1C(/C=C/c1cc(O)c(O)c(O)c1)=CC2=O [M3]
2 | 0.84 | 1.14 (AR∙h) × 10^2 | 15 | 3.05 | 120.5 (AR∙h) × 10^2 | 60 | detected | COc1cc(C=CC2=CC(=O)C3CC2C3(C)C)cc(OC2OC(C(=O)O)C(O)C(O)C2O)c1OC1OC(C(=O)O)C(O)C(O)C1O (stereo not shown) [M5]
